The source of these data is patent US10259796B2, “Oxaspiro[2.5]octane derivatives and analogs” (Zafgen, Inc., priority 2011, dated 2019).

In one test the target is T1, recombinant human MetAP2 (Homo sapiens, UniProt P50579).
T1 construct: made in house; host or cells: High Five insect cells (Bac-to-Bac baculovirus)
Put plainly: MetAP2 enzyme assay (inhibition of recombinant MetAP2, Met-Gly-Met-Met substrate). Format: biochemical. The settings on record: 50 nM. On the procedure: Exemplary procedures for expression and purification of MetAP2 are shown in Griffith et al. (PNAS (1998) 95(26):15183-15188). Briefly, recombinant His-tagged human MetAP2 is expressed by using a Bac-to-Bac baculovirus expression system (GIBCO/BRL). Recombinant baculovirus stocks are generated and amplified as per the manufacturer's instructions. Protein is harvested 36 hr after baculovirus infection of two 15-cm plates of High Five cells.
The cell pellet are weighed and lysed (in 5 ml/g of wet pellet) in pre-chilled lysis buffer [buffer B+1% Nonidet P-40/1 mM phenymethylsulfonyl fluoride (PMSF)/2 μg/ml leupeptin/2 μg/ml aprotinin/1 μg/ml pepstatin]. The lysate is incubated on ice for 10 min and centrifuged at 10,000×g for 10 min. […] The Talon resin is pelleted by centrifugation at 1,200×g for 3 min and washed with 4×10 ml of buffer B. During the final wash, the resin is slurried into a Bio-Rad Econo column. The 6×His-tagged MetAP2 is eluted with 6 ml of 50 mM imidazole in buffer B, and 0.5 ml fractions are collected. The amount and purity of recombinant MetAP2 is analyzed by the absorbance at 280 nm and SDS/PAGE (10% gel). The fractions containing the highest amounts of MetAP2 are pooled and dialyzed against 3 liters of buffer B overnight before storage at 4° C.
An enzyme assay is performed in a 96-well format as described in Griffith et al. (PNAS (1998) 95(26):15183-15188). […] To begin the enzymatic reaction, Met-Gly-Met-Met is added to a final concentration of 4 mM and incubated at 37° C. The reaction is quenched after 20 min by adding EDTA to a concentration of 10 mM. Released methionine is quantitated as described in Ben-Bassat et al. (J Bacteriol (1987) 169:751-757).
IC50 values are calculated and compounds herein are determined to be active inhibitors of MetAP2, with some having nanomolar activities.

The nature of test [1]: Cell Based Assay (inhibition range).
Setting [2] is: 1 hr, read-out: MetAP2 Enzyme Assay 1 hr 50 nM.
Where [3] appears, read: 2 hr, read-out: MetAP2 Enzyme Assay 2 hr 50 nM.
Where [4] appears, read: 4 hr, read-out: MetAP2 Enzyme Assay 4 hr 50 nM.

The structures appear in SMILES notation. Read-outs that look alike come from different tables or passages of the source. A value given as a limit tells only on which side of the number the result lay.

T1 sequence (P50579 whole entry): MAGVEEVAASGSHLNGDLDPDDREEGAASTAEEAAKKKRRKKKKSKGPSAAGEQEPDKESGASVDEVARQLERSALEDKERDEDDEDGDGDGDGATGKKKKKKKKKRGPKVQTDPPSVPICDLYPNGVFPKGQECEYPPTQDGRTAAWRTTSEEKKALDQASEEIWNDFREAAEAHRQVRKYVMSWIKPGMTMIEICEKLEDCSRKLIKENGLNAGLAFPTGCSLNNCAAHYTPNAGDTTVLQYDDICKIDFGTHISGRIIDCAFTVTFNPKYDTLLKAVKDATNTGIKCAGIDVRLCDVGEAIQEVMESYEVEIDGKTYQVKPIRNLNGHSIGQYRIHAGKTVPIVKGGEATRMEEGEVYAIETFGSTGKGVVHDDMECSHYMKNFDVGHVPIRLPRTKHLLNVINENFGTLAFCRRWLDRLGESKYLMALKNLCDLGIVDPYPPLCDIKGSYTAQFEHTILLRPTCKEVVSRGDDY

In the case of `CO[C@@H]1C(=O)CC[C@]2(CO2)[C@H]1C1(C)O[C@@H]1CCC(C)C` (stereo in doubt) [Example 52, (3R,5 S)-4-((2R,3R)-3-isopentyl-2-methyloxiran-2-yl)-5-methoxy-1-oxaspiro[2.5]octan-6-one], the inhibition at 0.05 µM at recombinant human MetAP2 (setting [2]) was 0%; on recombinant human MetAP2 (setting [3]), 0%; at recombinant human MetAP2 (setting [4]), 17%.

A word on the IC50: it is the midpoint of a concentration-inhibition curve. A higher IC50 goes with weaker potency. As to `CO[C@@H]1C(=CC=C(C)C)CC[C@]2(CO2)[C@H]1[C@@]1(C)O[C@@H]1CC=C(C)C` [Example 21], the inhibition at 0.05 µM at recombinant human MetAP2 (setting [2]), at recombinant human MetAP2 (setting [3]) and on recombinant human MetAP2 (setting [4]) was 0% throughout. The compound also gave a concentration for half-maximal inhibition (IC50) in test [1] (in uM) above 1 µM.

Regarding `C=C1CC[C@]2(CO2)[C@@H]([C@@]2(C)O[C@@H]2C/C=C/CCCC)[C@@H]1OC` [Example 22], the inhibition at 0.05 µM on recombinant human MetAP2 (setting [2]), at recombinant human MetAP2 (setting [3]) and at recombinant human MetAP2 (setting [4]) was 0% each time. The IC50 in test [1] (in uM) is above 1 µM.

As to `CCCC/C=C/C[C@H]1O[C@]1(C)[C@H]1[C@H](OC)[C@H](O)CC[C@]12CO2` [Example 24], the inhibition at 0.05 µM on recombinant human MetAP2 (setting [2]), at recombinant human MetAP2 (setting [3]) and at recombinant human MetAP2 (setting [4]) was 0% throughout. Moreover, the IC50 in test [1] (cells printed in nM) fell in the range of 0.01 to 0.1 µM.

On to `CO[C@@H]1C(C)CC[C@]2(CO2)[C@H]1[C@@]1(C)O[C@@H]1CCC(C)C` (stereo partly shown) [Example 26], for which the inhibition at 0.05 µM on recombinant human MetAP2 (setting [2]), at recombinant human MetAP2 (setting [3]) and at recombinant human MetAP2 (setting [4]) was 0% in each case.

As to `CCCCCCCCCC[S+]([O-])[C@@H]1CC[C@]2(CO2)[C@@H]([C@@]2(C)O[C@@H]2CC=C(C)C)[C@@H]1OC` (stereo partly shown) [Example 31], the inhibition at 0.05 µM at recombinant human MetAP2 (setting [4]) was 0%.

Turning to `CO[C@@H]1[C@H](OC(=O)/C=C/C=C/C=C/C=C/C(=O)O)CC[C@]2(CO2)[C@H]1[C@@]1(C)O[C@@H]1CC=C(C)C` [Example 36], on recombinant human MetAP2 (setting [4]), the inhibition at 0.05 µM was determined as 64%. Also, the IC50 in test [1] (cells printed in nM) is below 0.01 µM.

With `CCOC(=O)C=C1CC[C@]2(CO2)[C@@H]([C@@]2(C)O[C@@H]2CC=C(C)C)[C@@H]1OC` [Example 37], the inhibition at 0.05 µM on recombinant human MetAP2 (setting [4]) came out at 96%. In test [1] (cells printed in nM), this compound came in with an IC50 below 0.01 µM.

With `CO[C@@H]1C(=O)CC[C@]2(CO2)[C@H]1[C@@]1(C)O[C@@H]1CC=C(C)C` [Example 51, (3R,5S)-5-methoxy-4-((2R,3R)-2-methyl-3-(3-methylbut-2-enyl)oxiran-2-yl)-1-oxaspiro[2.5]octan-6-one], the values for the inhibition at 0.05 µM on recombinant human MetAP2 (setting [2]), on recombinant human MetAP2 (setting [3]) and at recombinant human MetAP2 (setting [4]) were 0%, 44% and 78%, respectively.

Turning to `CO[C@@H]1C(=O)C(C)C[C@]2(CO2)C1[C@@]1(C)O[C@@H]1CC=C(C)C` (stereo partly drawn) [Example 53, (3R,5S)-5-methoxy-7-methyl-4-((2R,3R)-2-methyl-3-(3-methylbut-2-enyl)oxiran-2-yl)-1-oxaspiro[2.5]octan-6-one], the inhibition at 0.05 µM at recombinant human MetAP2 (setting [2]) was 0%; on recombinant human MetAP2 (setting [3]), 0%; at recombinant human MetAP2 (setting [4]) it was 28%.

Turning to `CO[C@@H]1C(=O)CC[C@@](C)(O)[C@H]1[C@@]1(C)O[C@@H]1CCC(C)C` [Example 54, (2S,4R)-4-hydroxy-3-((2R,3R)-3-isopentyl-2-methyloxiran-2-yl)-2-methoxy-4-methylcyclohexanone], the inhibition at 0.05 µM on recombinant human MetAP2 (setting [2]), at recombinant human MetAP2 (setting [3]) and at recombinant human MetAP2 (setting [4]) was 0% throughout.

`CO[C@@H]1C(=O)CC[C@]2(CO2)[C@H]1C1(C)O[C@@H]1CC(=O)O` (stereo partly shown) [Example 55]: on recombinant human MetAP2 (setting [4]), the inhibition at 0.05 µM is 0%.

On to `CO[C@@H]1C(=O)C=C[C@]2(CO2)[C@H]1[C@@]1(C)O[C@@H]1CC=C(C)C` [Example 57, (3R,S)-7-methoxy-8-((2R,3R)-2-methyl-3-(3-methylbut-2-enyl)oxiran-2-yl)-1-oxaspiro[2.5]oct-4-en-6-one], for which, on recombinant human MetAP2 (setting [4]), the inhibition at 0.05 µM was found to be 37%.

`CO[C@@H]1C(=O)CC[C@]2(CO2)[C@H]1C1(C)O[C@@H]1CC(=O)NCc1ccccc1` (stereo partly shown) [Example 58]: on recombinant human MetAP2 (setting [4]), the inhibition at 0.05 µM was 0%.

Consider `CCOC(=O)CCCCC/C=C/C[C@H]1OC1(C)[C@H]1[C@H](OC)C(=O)CC[C@]12CO2` (stereo partly shown) [Example 59], for which the inhibition at 0.05 µM on recombinant human MetAP2 (setting [4]) stood at 0%. This compound also gave a half-inhibitory concentration (IC50) in test [1] (cells printed in nM) of 0.01 to 0.1 µM.
